Experimental data published in US20240090503A1, “FUNGICIDAL OXADIAZOLES AND THEIR MIXTURES” (FMC CORPORATION, priority 2020, published 2024).

Assays:
[1] = test system: Phakopsora pachyrhizi (the causal agent of Asian soybean rust); assay: Test A: preventive spray on soybean seedlings, Asian soybean rust, visual disease rating; format: in vivo; details: soybean seedlings
Description: (§1) General protocol for preparing test suspensions for Tests A-D: the test compounds were first dissolved in acetone in an amount equal to 3% of the final volume and then suspended at the desired concentration (in ppm) in acetone and purified water (50/50 mix by volume) containing 250 ppm of the surfactant PEG400 (polyhydric alcohol esters). The resulting test suspensions were then used in Tests A-D.
The test suspension was sprayed to the point of run-off on soybean seedlings. The following day the seedlings were inoculated with a spore suspension of Phakopsora pachyrhizi (the causal agent of Asian soybean rust) and incubated in a saturated atmosphere at 22° C. for 24 h and then moved to a growth chamber at 22° C. for 8 days, after which time visual disease ratings were made.
(§2) The test results for Tests A-C presented in Table A below for compounds of Formula 1 illustrate the fungicidal activity of component (a) contributing to the plant disease control utility of compositions comprising component (a) in combination with component (b) according to the present invention. In the Table, a rating of 100 indicates 100% disease control and a rating of 0 indicates no disease control (relative to the controls). A dash (-) indicates the compound was not tested. The test suspensions were sprayed at the concentration listed in the column “Rate in ppm”, unless otherwise indicated. An asterisk “*” next to the rating indicates a 250 ppm test suspension was used, a double asterisk “**” next to the rating indicates a 100 ppm test suspension was used, and a triple asterisk “***” next to the rating indicates a 50 ppm test suspension was used.

[2] = test system: Puccinia recondita f. sp. tritici (the causal agent of wheat leaf rust); assay: Test C: preventive spray on wheat seedlings, wheat leaf rust, visual disease rating; format: in vivo; details: wheat seedlings
Description: as §1
The test suspension was sprayed to the point of run-off on wheat seedlings. The following day the seedlings were inoculated with a spore suspension of Puccinia recondita f. sp. tritici; (the causal agent of wheat leaf rust) and incubated in a saturated atmosphere at 20° C. for 24 h, and then moved to a growth chamber at 20° C. for 6 days, after which time visual disease ratings were made.
as §2

[3] = test suspension 10 ppm, 100 = 100% disease control, 0 = no control

Cc1nn(Cc2ccc(-c3noc(C(F)(F)F)n3)cc2)c2ccc(Br)cc12 [compound 51]
Test A disease control rating [1, 3]: 99%
Test C disease control rating ([2]; test suspension 10 ppm): 68%

Cc1c2cc(Br)ccc2nn1Cc1ccc(-c2noc(C(F)(F)F)n2)cc1 [compound 52]
Test A disease control rating [1, 3]: 99%
Test C disease control rating ([2]; test suspension 10 ppm): 80%

FC(F)(F)c1nc(-c2ccc(Cn3ncc4c(Cl)cc(Br)cc43)cc2)no1 [compound 53]
Test A disease control rating [1, 3]: 0%
Test C disease control rating ([2]; test suspension 10 ppm): 9%

FC(F)(F)c1nc(-c2ccc(Cn3cc4c(Cl)cc(Br)cc4n3)cc2)no1 [compound 54]
Test A disease control rating [1, 3]: 99%
Test C disease control rating ([2]; test suspension 10 ppm): 68%

O=C(O)c1cnn(Cc2ccc(-c3noc(C(F)(F)F)n3)cc2)c1 [compound 55]
Test A disease control rating [1, 3]: 100%
Test C disease control rating ([2]; test suspension 10 ppm): 99%

CNC(=O)c1cnn(Cc2ccc(-c3noc(C(F)(F)F)n3)cc2)c1 [compound 61]
Test A disease control rating [1, 3]: 100%
Test C disease control rating ([2]; test suspension 10 ppm): 100%

CN(C)C(=O)c1cnn(Cc2ccc(-c3noc(C(F)(F)F)n3)cc2)c1 [compound 62]
Test A disease control rating [1, 3]: 100%
Test C disease control rating ([2]; test suspension 10 ppm): 100%

CC(C)NC(=O)c1cnn(Cc2ccc(-c3noc(C(F)(F)F)n3)cc2)c1 [compound 63]
Test A disease control rating [1, 3]: 100%
Test C disease control rating ([2]; test suspension 10 ppm): 100%

C=CCNC(=O)c1cnn(Cc2ccc(-c3noc(C(F)(F)F)n3)cc2)c1 [compound 64]
Test A disease control rating [1, 3]: 100%
Test C disease control rating ([2]; test suspension 10 ppm): 100%

N#CCNC(=O)c1cnn(Cc2ccc(-c3noc(C(F)(F)F)n3)cc2)c1 [compound 65]
Test A disease control rating [1, 3]: 100%
Test C disease control rating ([2]; test suspension 10 ppm): 100%

CCOC(=O)c1c(C)nn(Cc2ccc(-c3noc(C(F)(F)F)n3)cc2)c1C [compound 66]
Test A disease control rating ([1]; test suspension 255 ppm): 100%
Test C disease control rating ([2]; test suspension 255 ppm): 100%

CCNC(=O)c1cnn(Cc2ccc(-c3noc(C(F)(F)F)n3)cc2)c1 [compound 67]
Test A disease control rating [1, 3]: 100%
Test C disease control rating ([2]; test suspension 10 ppm): 99%

CCCNC(=O)c1cnn(Cc2ccc(-c3noc(C(F)(F)F)n3)cc2)c1 [compound 68]
Test A disease control rating [1, 3]: 100%
Test C disease control rating ([2]; test suspension 10 ppm): 100%

O=C(NC1CC1)c1cnn(Cc2ccc(-c3noc(C(F)(F)F)n3)cc2)c1 [compound 69]
Test A disease control rating [1, 3]: 100%
Test C disease control rating ([2]; test suspension 10 ppm): 100%

FC(F)(F)c1nc(-c2ccc(Cn3ccc(Br)n3)s2)no1 [compound 72]
Test A disease control rating ([1]; test suspension 50 ppm): 99%
Test C disease control rating ([2]; test suspension 50 ppm): 100%

CCOC(=O)c1cc(C)n(Cc2ccc(-c3noc(C(F)(F)F)n3)s2)n1 [compound 73]
Test A disease control rating [1, 3]: 100%
Test C disease control rating ([2]; test suspension 10 ppm): 86%

N#Cc1c(Br)cnn1Cc1ccc(-c2noc(C(F)(F)F)n2)s1 [compound 77]
Test A disease control rating ([1]; test suspension 50 ppm): 100%
Test C disease control rating ([2]; test suspension 50 ppm): 100%

CC(C)(C)NC(=O)c1cnn(Cc2ccc(-c3noc(C(F)(F)F)n3)cc2)c1 [compound 78]
Test A disease control rating [1, 3]: 100%
Test C disease control rating ([2]; test suspension 10 ppm): 100%

CCOC(=O)c1cc(CC)n(Cc2ccc(-c3noc(C(F)(F)F)n3)cc2)n1 [compound 79]
Test A disease control rating [1, 3]: 100%
Test C disease control rating ([2]; test suspension 10 ppm): 68%

CCOC(=O)c1cc(C(C)C)n(Cc2ccc(-c3noc(C(F)(F)F)n3)cc2)n1 [compound 80]
Test A disease control rating [1, 3]: 100%
Test C disease control rating ([2]; test suspension 10 ppm): 68%

CCOC(=O)c1cc(CC)nn1Cc1ccc(-c2noc(C(F)(F)F)n2)cc1 [compound 81]
Test A disease control rating [1, 3]: 100%
Test C disease control rating ([2]; test suspension 10 ppm): 0%

CCOC(=O)c1cc(C(C)C)nn1Cc1ccc(-c2noc(C(F)(F)F)n2)cc1 [compound 82]
Test A disease control rating [1, 3]: 0%
Test C disease control rating ([2]; test suspension 10 ppm): 0%

FC(F)(F)c1nc(-c2ccc(Cn3ccc(Br)n3)cc2)no1 [compound 97]
Test A disease control rating ([1]; test suspension 50 ppm): 99%
Test C disease control rating ([2]; test suspension 50 ppm): 100%

CC(C)(C)c1ccn(Cc2ccc(-c3noc(C(F)(F)F)n3)cc2)n1 [compound 98]
Test A disease control rating ([1]; test suspension 50 ppm): 99%
Test C disease control rating ([2]; test suspension 50 ppm): 68%

Cc1nn(Cc2ccc(-c3noc(C(F)(F)F)n3)cc2)c2ccccc12 [compound 99]
Test A disease control rating [1, 3]: 100%
Test C disease control rating ([2]; test suspension 10 ppm): 68%

Cc1cccc2c1cnn2Cc1ccc(-c2noc(C(F)(F)F)n2)cc1 [compound 100]
Test A disease control rating [1, 3]: 100%
Test C disease control rating ([2]; test suspension 10 ppm): 86%

Cc1cccc2cnn(Cc3ccc(-c4noc(C(F)(F)F)n4)cc3)c12 [compound 101]
Test A disease control rating ([1]; test suspension 50 ppm): 100%
Test C disease control rating ([2]; test suspension 50 ppm): 100%

Cc1cccc2nn(Cc3ccc(-c4noc(C(F)(F)F)n4)cc3)cc12 [compound 102]
Test A disease control rating [1, 3]: 100%
Test C disease control rating ([2]; test suspension 10 ppm): 99%

Cc1cccc2cn(Cc3ccc(-c4noc(C(F)(F)F)n4)cc3)nc12 [compound 103]
Test A disease control rating [1, 3]: 100%
Test C disease control rating ([2]; test suspension 10 ppm): 97%

N#Cc1nn(Cc2ccc(-c3noc(C(F)(F)F)n3)cc2)c2ccccc12 [compound 104]
Test A disease control rating [1, 3]: 100%
Test C disease control rating ([2]; test suspension 10 ppm): 68%

N#Cc1cccc2c1cnn2Cc1ccc(-c2noc(C(F)(F)F)n2)cc1 [compound 105]
Test A disease control rating ([1]; test suspension 50 ppm): 100%
Test C disease control rating ([2]; test suspension 50 ppm): 100%

N#Cc1ccc2c(cnn2Cc2ccc(-c3noc(C(F)(F)F)n3)cc2)c1 [compound 106]
Test A disease control rating ([1]; test suspension 50 ppm): 100%
Test C disease control rating ([2]; test suspension 50 ppm): 100%

N#Cc1cccc2nn(Cc3ccc(-c4noc(C(F)(F)F)n4)cc3)cc12 [compound 107]
Test A disease control rating [1, 3]: 100%
Test C disease control rating ([2]; test suspension 10 ppm): 90%

N#Cc1ccc2nn(Cc3ccc(-c4noc(C(F)(F)F)n4)cc3)cc2c1 [compound 108]
Test A disease control rating ([1]; test suspension 50 ppm): 100%
Test C disease control rating ([2]; test suspension 50 ppm): 100%

CCOC(=O)c1cc(C)nn1Cc1ccc(-c2noc(C(F)(F)F)n2)cc1 [compound 109]
Test A disease control rating ([1]; test suspension 50 ppm): 100%
Test C disease control rating ([2]; test suspension 50 ppm): 77%

FC(F)(F)c1nc(-c2ccc(Cn3nc(Br)c4ccccc43)cc2)no1 [compound 112]
Test A disease control rating [1, 3]: 92%
Test C disease control rating ([2]; test suspension 10 ppm): 0%

FC(F)(F)c1nc(-c2ccc(Cn3nc4ccccc4c3Br)cc2)no1 [compound 113]
Test A disease control rating [1, 3]: 99%
Test C disease control rating ([2]; test suspension 10 ppm): 0%

Nc1ccc2c(cnn2Cc2ccc(-c3noc(C(F)(F)F)n3)cc2)c1 [compound 115]
Test A disease control rating [1, 3]: 98%
Test C disease control rating ([2]; test suspension 10 ppm): 95%

COc1ccc2c(C#N)n(Cc3ccc(-c4noc(C(F)(F)F)n4)cc3)nc2c1 [compound 121]
Test A disease control rating [1, 3]: 87%
Test C disease control rating ([2]; test suspension 10 ppm): 0%

COc1ccc2c(cnn2Cc2ccc(-c3noc(C(F)(F)F)n3)cc2)c1 [compound 126]
Test A disease control rating ([1]; test suspension 260 ppm): 100%
Test C disease control rating ([2]; test suspension 260 ppm): 100%

Cc1cc(C(F)(F)F)n(Cc2ccc(-c3noc(C(F)(F)F)n3)cc2)n1 [compound 127]
Test A disease control rating [1, 3]: 0%
Test C disease control rating ([2]; test suspension 10 ppm): 0%

COc1ccc2nn(Cc3ccc(-c4noc(C(F)(F)F)n4)cc3)cc2c1 [compound 131]
Test A disease control rating [1, 3]: 100%
Test C disease control rating ([2]; test suspension 10 ppm): 99%

FC(F)(F)c1nc(-c2ccc(Cn3ccc4ccncc43)cc2)no1 [compound 135]
Test A disease control rating [1, 3]: 96%
Test C disease control rating ([2]; test suspension 10 ppm): 0%

FC(F)(F)c1nc(-c2ccc(Cn3ccc4cnccc43)cc2)no1 [compound 137]
Test A disease control rating [1, 3]: 100%
Test C disease control rating ([2]; test suspension 10 ppm): 41%

O=C(O)c1cc(C(=O)O)n(Cc2ccc(-c3noc(C(F)(F)F)n3)cc2)n1 [compound 140]
Test A disease control rating [1, 3]: 0%
Test C disease control rating ([2]; test suspension 10 ppm): 0%
